Experimental data as given in patent publication US11339192B2, “Bicyclic peptidyl inhibitors” (priority 2017, dated 2022).
Where two headings read alike, the source gives them in different places. Blank lines part the entries; values can stand above or below the molecule they belong to. Numbered stars: 1 amine (or outer) side, 2 acyl side, 3 side chain; on linkers, the order of the positions; unused ones are H or OH. Bridge positions count the residues as written; N and C are the ends. Square brackets hold non-standard residues; d marks the D form. Peptide text beside a SMILES is read from it. Trimesoyl = O=C(c1cc(C(=O)[*:2])cc(C(=O)[*:3])c1)[*:1]; 2Nal = N[C@@H](Cc1ccc2ccccc2c1)C(=O)O; Dap = NC[C@H](N)C(=O)O; βAla = NCCC(=O)O

Tests used:
HeLa cells [1] = assay: Cellular uptake of FITC-labeled peptides by flow cytometry; settings: for Permeability (%), cellular uptake efficiency: FITC-labeled peptide 5 μM, 2 h, relative to CPP1 (100%); for Permeability (%), cellular uptake efficiency / cellular entry efficiency (in words): HeLa cells; for cellular entry efficiency (in words): flow cytometry
Experimental: (§1) For flow cytometry analysis, HeLa cells were seeded into 12-well plates (1.5×10^5 cells per well) 24 hours before treatment. The next day, 5 μM FITC-labeled peptide in DMEM containing 10% FBS was added to each well and allowed to incubate at 37° c. for 2 hours. […] This washing process was repeated once to remove any free compound and left over trypsin. The washed pellet was resuspended in DPBS with 1% FBS and analyzed on a BD LSR II flow cytometer. Data presented were the mean±SD of three independent experiments.

NEMO-IKKβ interaction = biological target: T1, NEMO-IKKβ interaction (Homo sapiens, UniProt Q9Y6K9); assay: HTRF assay of inhibition of the NEMO-IKKβ interaction; type: binding; settings: for NEMO-binding affinity on Ala substitution (in words): alanine scan of peptide 7; for fold lower NEMO-binding affinity / potency: relative to peptide 7
T1 construct: cells were transformed with a pGEX4T3-NEMO(1-196) plasmid; made in house; host or cells: Escherichia coli BL21(DE3)

[2] = test system: NF-κB activation in HEK293(Luc) cells; assay: NF-κB luciferase assay; type: cell-based
Experimental: The ability of the bicyclic peptidyl inhibitors to inhibit NF-κB Signaling was analyzed. The ability of peptide 7 to enter the cell and block the intracellular NEMO-IKK interaction was assessed by using HEK293(Luc) cells, which harbor a luciferase gene under the transcriptional control of NF-κB. For the NF-κB Luciferase Assays, culture media was exchanged for DMEM containing 10% FBS and 1% penicillin/streptomycin the day before seeding to remove hygromycin B. HEK293(Luc) cells were seeded in 50 μL of assay medium (DMEM, 10% FBS, and 1% penicillin/streptomycin) in an opaque 96-well microplate (3000 cells per well) and incubated overnight. The peptide inhibitors were added to the cells the next day in 5 μL of assay medium and the plate was incubated at 37° c. for 2 h. After that, 5 μL of assay media containing recombinant TNFα (final concentration 5 ng/mL) was added to the wells. The plate was then returned to the incubator for 4 h at 37° c. Finally, 50 μL of ONE-Step luciferase assay reagent was added to each well and after 10 minutes the luminescence was measured on a Tecan Infinite M1000 Pro microplate reader. Data presented were the mean±SD of at least three independent experiments (n=6 for basal activities).

A2780 cells = assay: MTT cell viability assay, A2780; type: cell-based; settings: 72 hours
Experimental: For the MTT cell viability assay, HeLa, HEK293, A2780, OSE or A375 cells were seeded into a 96-well microplate (3000 cells/well) in 100 μl of respective growth media and incubated at 37° c. overnight. The next day, a serial dilution of peptide was added to each well in 10 μL of assay medium. The treated cells were incubated at 37° c. with 5% CO2 for 72 hours. Following compound treatment, 10 μL of MTT stock solution (Roche) was added to each well. After an additional 4 h at 37° C., 100 μL of SDS-HCl solubilizing solution was added to each well and the plate was returned to the incubator overnight at 37° c. A Tecan Infinite M1000 Pro microplate reader was used the following morning to measure the absorbance of the formazan product at 565 nm.

HeLa cells [3] = test system: HeLa cells
Experimental: as §1

[4] = Proteolytic stability in human serum (analytical HPLC)
Experimental: The proteolytic stability of peptide 7 was assessed by incubation in human serum at 37° C. and quantitation of the remaining peptide as a function of time by analytical HPLC.

T1 sequence (Q9Y6K9 1-196): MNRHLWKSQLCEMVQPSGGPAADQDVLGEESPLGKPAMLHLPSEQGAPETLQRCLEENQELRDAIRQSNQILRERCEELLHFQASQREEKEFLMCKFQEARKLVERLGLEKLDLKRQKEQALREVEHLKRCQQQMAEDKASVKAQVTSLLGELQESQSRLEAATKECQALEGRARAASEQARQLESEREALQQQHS

Permeability (%), cellular uptake efficiency (HeLa cells [1]): 76%
SMILES: CC[C@H](C)[C@@H]1NC(=O)[C@H](Cc2c[nH]c3ccccc23)NC(=O)CNC(=O)c2cc3cc(c2)C(=O)NC[C@H](NC(=O)[C@H](Cc2ccc(O)cc2)NC1=O)C(=O)N[C@@H](Cc1ccccc1)C(=O)N[C@@H](Cc1ccc2ccccc2c1)C(=O)N[C@@H](CCCNC(=N)N)C(=O)N[C@@H](CCCNC(=N)N)C(=O)N[C@@H](CCCNC(=N)N)C(=O)N[C@H](C(=O)NCCC(=O)NCCC(=O)N[C@@H](CCCCN)C(=O)O)CNC3=O [Peptide 2, Tm(GWIY)Δ(FΦRRRΔ)-BBK] (GWIY[Dap]F[2Nal]RRR[Dap][βAla][βAla]K-OH; linker N-5-11 via Trimesoyl; C-terminus assumed)

Permeability (%), cellular uptake efficiency (HeLa cells [1]): 71%
SMILES: CC[C@H](C)[C@@H]1NC(=O)[C@H](Cc2c[nH]c3ccccc23)NC(=O)CNC(=O)c2cc3cc(c2)C(=O)NC[C@@H](C(=O)N[C@H](CCCNC(=N)N)C(=O)NCCC(=O)N[C@@H](CCCCN)C(=O)O)NC(=O)[C@H](CCCNC(=N)N)NC(=O)[C@H](CCCNC(=N)N)NC(=O)[C@H](CCCNC(=N)N)NC(=O)[C@H](Cc2ccc4ccccc4c2)NC(=O)[C@H](Cc2ccccc2)NC(=O)[C@H](CNC3=O)NC(=O)[C@H](Cc2ccc(O)cc2)NC1=O [Peptide 5, Tm(GWIY)Δ(FΦRRRΔ)-rBK] (GWIY[Dap]F[2Nal]RRR[Dap][dR][βAla]K-OH; linker N-5-11 via Trimesoyl; C-terminus assumed)
cellular entry efficiency (in words) (HeLa cells [1]): slightly decreased the cellular entry efficiency

SMILES: CC[C@H](C)[C@@H]1NC(=O)[C@H](Cc2c[nH]c3ccccc23)NC(=O)CNC(=O)c2cc3cc(c2)C(=O)NC[C@@H](C(=O)NCCC(=O)NCCC(=O)N[C@@H](CCCCN)C(=O)O)NC(=O)[C@H](CCCNC(=N)N)NC(=O)[C@@H](CCCNC(=N)N)NC(=O)[C@H](CCCNC(=N)N)NC(=O)[C@H](Cc2ccc4ccccc4c2)NC(=O)[C@H](C)NC(=O)[C@H](CNC3=O)NC(=O)[C@H](C)NC(=O)[C@H](Cc2ccc(O)cc2)NC1=O [Peptide 15, Tm(GWIYA)Δ(AΦRrRΔ)-BBK] (GWIYA[Dap]A[2Nal]R[dR]R[Dap][βAla][βAla]K-OH; linker N-6-12 via Trimesoyl; C-terminus assumed)
NEMO-binding affinity on Ala substitution (in words) (NEMO-IKKβ interaction): significantly de-creased the NEMO-binding affinity

SMILES: CC[C@H](C)[C@@H]1NC(=O)[C@H](C)NC(=O)CNC(=O)c2cc3cc(c2)C(=O)NC[C@@H](C(=O)NCCC(=O)NCCC(=O)N[C@@H](CCCCN)C(=O)O)NC(=O)[C@H](CCCNC(=N)N)NC(=O)[C@@H](CCCNC(=N)N)NC(=O)[C@H](CCCNC(=N)N)NC(=O)[C@H](Cc2ccc4ccccc4c2)NC(=O)[C@H](Cc2ccccc2)NC(=O)[C@H](CNC3=O)NC(=O)[C@H](C)NC(=O)[C@H](C)NC1=O [Peptide 20, Tm(GAIAA)Δ(FΦRrRΔ)-BBK] (GAIAA[Dap]F[2Nal]R[dR]R[Dap][βAla][βAla]K-OH; linker N-6-12 via Trimesoyl; C-terminus assumed)
fold lower NEMO-binding affinity / potency (NEMO-IKKβ interaction): 16 fold
effect on TNFα-induced luciferase activity (in words) [2]: decreased the luciferase activity only at high concentrations
activity on A2780 viability (in words) (A2780 cells): much less active than peptide 7

SMILES: CC[C@H](C)[C@@H]1NC(=O)[C@H](Cc2c[nH]c3ccccc23)NC(=O)CNC(=O)c2cc3cc(c2)C(=O)NC[C@@H](C(=O)NCCC(=O)NCCC(=O)N[C@@H](CCCCN)C(=O)O)NC(=O)[C@H](CCCNC(=N)N)NC(=O)[C@@H](CCCNC(=N)N)NC(=O)[C@H](CCCNC(=N)N)NC(=O)[C@H](C)NC(=O)[C@H](Cc2ccccc2)NC(=O)[C@H](CNC3=O)NC(=O)[C@H](C)NC(=O)[C@H](Cc2ccc(O)cc2)NC1=O [Peptide 16, Tm(GWIYA)Δ(FARrRΔ)-BBK] (GWIYA[Dap]FAR[dR]R[Dap][βAla][βAla]K-OH; linker N-6-12 via Trimesoyl; C-terminus assumed)
NEMO-binding affinity on Ala substitution (in words) (NEMO-IKKβ interaction): significantly de-creased the NEMO-binding affinity

Permeability (%), cellular uptake efficiency (HeLa cells [1]): 71%
SMILES: CC[C@H](C)[C@@H]1NC(=O)[C@H](Cc2c[nH]c3ccccc23)NC(=O)CNC(=O)c2cc3cc(c2)C(=O)NC[C@H](NC(=O)[C@H](Cc2ccc(O)cc2)NC1=O)C(=O)N[C@@H](Cc1ccccc1)C(=O)N[C@@H](Cc1ccc2ccccc2c1)C(=O)N[C@@H](CCCNC(=N)N)C(=O)N[C@@H](CCCNC(=N)N)C(=O)N[C@@H](CCCNC(=N)N)C(=O)N[C@H](C(=O)N[C@@H](CCCNC(=N)N)C(=O)NCCC(=O)N[C@@H](CCCCN)C(=O)O)CNC3=O [Peptide 4, Tm(GWIY)Δ(FΦRRRΔ)-RBK] (GWIY[Dap]F[2Nal]RRR[Dap]R[βAla]K-OH; linker N-5-11 via Trimesoyl; C-terminus assumed)
cellular entry efficiency (in words) (HeLa cells [1]): slightly decreased the cellular entry efficiency

SMILES: CC[C@H](C)[C@@H]1NC(=O)[C@H](Cc2c[nH]c3ccccc23)NC(=O)CNC(=O)c2cc3cc(c2)C(=O)NC[C@H](NC(=O)[C@H](Cc2ccc(O)cc2)NC1=O)C(=O)N[C@@H](Cc1ccccc1)C(=O)N[C@@H](Cc1ccc2ccccc2c1)C(=O)N[C@@H](CCCNC(=N)N)C(=O)N[C@@H](CCCNC(=N)N)C(=O)N[C@@H](CCCNC(=N)N)C(=O)N[C@@H](CCCNC(=N)N)C(=O)N[C@H](C(=O)NCCC(=O)NCCC(=O)N[C@@H](CCCCN)C(=O)O)CNC3=O [Peptide 3, Tm(GWIY)Δ(FΦRRRRΔ)-BBK] (GWIY[Dap]F[2Nal]RRRR[Dap][βAla][βAla]K-OH; linker N-5-12 via Trimesoyl; C-terminus assumed)
cellular entry efficiency (in words) (HeLa cells [3]): slightly decreased the cellular entry efficiency

Permeability (%), cellular uptake efficiency (HeLa cells [1]): 322%
increase of uptake efficiency (HeLa cells [1]; second arginine replaced with D-arginine, versus peptide 2): 4.2 fold
SMILES: CC[C@H](C)[C@@H]1NC(=O)[C@H](Cc2c[nH]c3ccccc23)NC(=O)CNC(=O)c2cc3cc(c2)C(=O)NC[C@H](NC(=O)[C@H](Cc2ccc(O)cc2)NC1=O)C(=O)N[C@@H](Cc1ccccc1)C(=O)N[C@@H](Cc1ccc2ccccc2c1)C(=O)N[C@@H](CCCNC(=N)N)C(=O)N[C@H](CCCNC(=N)N)C(=O)N[C@@H](CCCNC(=N)N)C(=O)N[C@H](C(=O)NCCC(=O)NCCC(=O)N[C@@H](CCCCN)C(=O)O)CNC3=O [Peptide 6, Tm(GWIY)Δ(FΦRrRΔ)-BBK] (GWIY[Dap]F[2Nal]R[dR]R[Dap][βAla][βAla]K-OH; linker N-5-11 via Trimesoyl; C-terminus assumed)

SMILES: C[C@@H]1NC(=O)CNC(=O)c2cc3cc(c2)C(=O)NC[C@@H](C(=O)NCCC(=O)NCCC(=O)N[C@@H](CCCCN)C(=O)O)NC(=O)[C@H](CCCNC(=N)N)NC(=O)[C@@H](CCCNC(=N)N)NC(=O)[C@H](CCCNC(=N)N)NC(=O)[C@H](Cc2ccc4ccccc4c2)NC(=O)[C@H](Cc2ccccc2)NC(=O)[C@H](CNC3=O)NC(=O)[C@H](C)NC(=O)[C@H](C)NC(=O)[C@H](C)NC1=O [Peptide 21, Tm(GAAAA)Δ(FΦRrRΔ)-BBK] (GAAAA[Dap]F[2Nal]R[dR]R[Dap][βAla][βAla]K-OH; linker N-6-12 via Trimesoyl; C-terminus assumed)
fold lower NEMO-binding affinity / potency (NEMO-IKKβ interaction): > 100 fold
effect on TNFα-induced luciferase activity (in words) [2]: decreased the luciferase activity only at high concentrations
activity on A2780 viability (in words) (A2780 cells): much less active than peptide 7

SMILES: CC[C@H](C)[C@H](NC(=O)[C@H](CCCCN)NC(=O)[C@@H](NC(=O)[C@H](CCC(N)=O)NC(=O)[C@@H](N)CCCNC(=N)N)[C@@H](C)CC)C(=O)N[C@@H](Cc1c[nH]c2ccccc12)C(=O)N[C@@H](Cc1ccccc1)C(=O)N[C@@H](CCC(N)=O)C(=O)N[C@@H](CC(N)=O)C(=O)N[C@@H](CCCNC(=N)N)C(=O)N[C@@H](CCCNC(=N)N)C(=O)N[C@@H](CCSC)C(=O)N[C@@H](CCCCN)C(=O)N[C@@H](Cc1c[nH]c2ccccc12)C(=O)N[C@@H](CCCCN)C(=O)N[C@@H](CCCCN)C(=O)NCC(=O)NCC(=O)N[C@H](C(=O)N[C@@H](C)C(=O)N[C@@H](CC(C)C)C(=O)N[C@@H](CC(=O)O)C(=O)N[C@@H](Cc1c[nH]c2ccccc12)C(=O)N[C@@H](CO)C(=O)N[C@@H](Cc1c[nH]c2ccccc12)C(=O)N[C@@H](CC(C)C)C(=O)N[C@@H](CCC(N)=O)C(=O)N[C@H](C(=O)N[C@@H](CCC(=O)O)C(=O)O)[C@@H](C)O)[C@@H](C)O [Peptide 1, reference compound]
half-life [4]: ~20 min
Permeability (%), cellular uptake efficiency (HeLa cells [1]): 35%
